The test system of the test is HRV14. Put plainly: Inhibitory activity against human rhinovirus infection and replication (quantitative real-time PCR). It is filed as cell-based. The conditions noted are these: Human rhinovirus sp., MRC5; 100 nmol/L test compound; MRC-5 cells infected with HRV14 at MOI=0.2; 48 hours; viral load normalized to 18s rRNA; read-out: Percent Inhibition. The essentials:
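Near-confluent MRC-5 cells were pretreated 30 min with compound at 100 or 1000 nmol/L, then infected with HRV14 (MOI 0.2) in compound-containing medium (2% FBS, 30 mmol/L MgCl2) and cultured 48 h at 35 °C. HRV14 RNA by qRT-PCR, normalized to 18S rRNA; percent inhibition versus untreated infected cells.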
Consider `COc1ccc(-c2c(C)nc3sc(C(C)(C)O)nn23)cc1S(=O)(=O)NC1(C)CCC(O)CC1` (centres unmarked) [Example 21-14], for which the inhibition at 0.1 µM was greater than 80%. In the case of `COc1ccc(-c2c(C)nc3sc(C(C)(C)O)nn23)cc1S(=O)(=O)NC1(CO)CC(F)(F)C1` [Example 21-15], the inhibition at 0.1 µM was greater than 80%.

As to `COc1ccc(-c2c(C)nc3sc(C(C)(C)O)nn23)cc1S(=O)(=O)NCC(O)C(F)(F)F` (centres unmarked) [Example 21-16], the inhibition at 0.1 µM lay in the range of 50 to 80%. As to `COc1ccc(-c2c(C)nc3sc(C(C)(C)O)cn23)cc1S(=O)(=O)Nc1ccc(O)cc1` [Example 21-18], the inhibition at 0.1 µM was in the range of 50 to 80%. Under `COc1ccc(-c2c(C)nc3sc(C(C)(C)O)cn23)cc1S(=O)(=O)Nc1ccc(F)cc1` [Example 21-19] stands 50 to 80%; under `COc1ccc(-c2c(C)nc3sc(C(C)(C)O)nn23)cc1S(=O)(=O)Nc1ccc(C#N)cc1` [Example 21-20], no more than 50%; under `COc1ccc(-c2c(C)nc3sc(C4(O)CC4)cn23)cc1S(=O)(=O)N[C@H]1CC[C@@H](O)CC1` [Example 22], no more than 50%. `COc1ccc(-c2c(C)nc3sc(C(C)(C)O)nn23)cc1S(=O)(=O)NC1(C(C)(C)O)CC1` [Example 23]: the inhibition at 0.1 µM was greater than 80%. In the case of `COc1ccc(-c2c(C)nc3sc(C(C)(C)O)cn23)cc1S(=O)(=O)N(C)[C@H]1CC[C@@H](O)CC1` [Example 24], the inhibition at 0.1 µM was no more than 50%. On to `C=C(C)c1cn2c(-c3ccc(OC)c(S(=O)(=O)N[C@H]4CC[C@@H](O)CC4)c3)c(C)nc2s1` [Example 25], for which the inhibition at 0.1 µM fell in the range of 50 to 80%.

As for `COc1ccc(-c2c(C)nc3sc(C(C)(C)O)nn23)cc1S(=O)(=O)Cc1ccc(N)cc1` [Example 26], the inhibition at 0.1 µM is no more than 50%.

As a reminder, the inhibition is the relative decrease from the control value, in per cent.

The values are drawn from patent US11952387B2, “Bicyclic heteroaromatic ring derivative” (priority 2018, dated 2024).
